In brackets after ≈: the same amount, converted by molar mass. Where two headings read alike, the source gives them in different places.
What was measured:
[1] = test system: Burkholderia cepacia J2315; assay: MIC by standard broth dilution; type: cell-based; details: Table S1
Method: (§1) Pseudomonas aeruginosa strain PAO1 (P. aeruginosa) was grown in M9 minimal medium (1.0 g/L NH4Cl, 0.5 g/L NaCl, 6.0 g/L Na2HPO4, 3.0 g/L KH2PO4) supplemented with 1.0 mM MgSO4, 1.0 mM ZnSO4, 0.2 mM CaCl2, 0.4% (w/v) glucose and 0.2% (w/v) casein hydrolysate. Gram-negative Escherichia coli strain K-12 (E. coli) and Burkholderia cepacia J2315 (B. cepacia) were cultured in Luria-Bertani (LB) medium (5 g/L yeast extract, 10 g/L tryptone, 10 g/L sodium chloride). The Gram-positive Staphylococcus aureus strain Newman (S. aureus) was grown in Tryptic Soy Broth (TSB) medium (17 g/L Tryptone, 3 g/L Phytone, 5 g/L sodium chloride, 2.5 g/L dipotassium phosphate and glucose 2.5 g/L).
(§2) The minimal inhibitory concentration (MIC) values of the gallium compounds were determined using a standard broth dilution method as described previously ([Wiegand et al., 2008]). In brief, the compounds were two-fold serially diluted to concentrations from 400 to 1.56 μM. Approximately 50 μL of the compound solution was added to a 96-well microtiter plate and mixed with 50 μL of bacteria culture in log phase (10^6 CFU/ml). The bacterial culture was further incubated at 37°C for 22–24 h. The OD600 values for each well was recorded on a microplate reader. The MICs value was defined as the lowest compound concentration that inhibited 95% of the bacterial growth.

Escherichia coli MG16552 = assay: MIC by standard broth dilution; type: cell-based; details: Table S1
Method: as §1, §2

[2] = test system: Pseudomonas aeruginosa strain PAO1; assay: MIC by standard broth dilution; type: cell-based
Method: as §1, §2

[3] = test system: Staphylococcus aureus Newman; assay: MIC by standard broth dilution; type: cell-based; details: Table S1
Method: as §1, §2

P. aeruginosa [4] = assay: Drug resistance development assay (serial passage); type: cell-based, Pseudomonas aeruginosa; details: over 14 days
Method: Development of resistance to the Au1 compound and the antibiotics (ciprofloxacin and tobramycin) were assessed as described by [Habets and Brockhurst (2012)]. The MIC assay was performed on the first day as described above. […] Thereafter, a new passage MIC measurement assay was prepared using diluted bacterial cells grown at 0.5-fold MIC suspension. This was repeated for 14 passages and the MIC values for Au1, ciprofloxacin and tobramycin were recorded for each passage.

lung carcinoma A549 cell = assay: MTT cytotoxicity assay; type: cell-based, Human; details: 48 h
Method: The cytotoxicity of gold compounds to mammalian cells was measured using the 3-(4, 5-dimethylthiazol-2-yl)-2, 5-diphenyltetrazolium bromide (MTT) assay. Human hepatocyte L-O2 cell, and lung carcinoma A549 cell were cultured in Corning 96 well microplates (10^4 cells per well) at 37°C for 18 h. Then the cells were incubated with gradient concentrations of gold compounds at 37°C for another 48 h. After the treatment, cell culture media were removed and the plates were wash with PBS for three times. And 90 μL fresh media and 10 μL 5 mg/ml MTT solution were added to each well and further incubated at 37°C for 4 h. Subsequently, the media were removed from the wells and 150 μL DMSO was added into each well to dissolve the formazan crystals. The absorbance at 490 nm of each well was measured with a micro-plate reader. The experiments were carried out in triplicates.

P. aeruginosa [5] = assay: Bacterial growth curves; type: cell-based, Pseudomonas aeruginosa; details: 25 μM
Method: as §1

rhamnolipid = assay: Rhamnolipid measurement (anthrone); type: cell-based, Pseudomonas aeruginosa; details: 15 μM
Method: To quantify the secreted virulence factors, overnight P. aeruginosa PAO1 was diluted in fresh M9 medium and cultured to a final OD600 value of 0.15. Then Au1 or auranofin were added into culture with indicated concentrations. After 24 h incubation at 37°C, the bacterial supernatants were collected by centrifugation at 4,000 g for 10 min at 4°C and filtered using a 0.22 μm syringe filter (Millipore). The secreted virulence factors in the supernatant were quantified by the methods described below.
For rhamnolipid measurement, rhamnolipid was extracted from the supernatant with a mixture of chloroform and methanol (v:v = 2:1). The organic solvent phase was then evaporated to dryness and 100 μL methanol was added to dissolve the extracted rhamnolipid. Then 200 μL of pre-cooled anthrone solution (dissolving 2 g of anthrone in 1 L of concentrated H2SO4) was added into 20 μL extracted rhamnolipid sample and heat at 80°C for 30min. The rhamnolipid concentration was determined by measurement the absorbance at 630 nm.

P. aeruginosa [6] = assay: Bacterial membrane permeability, propidium iodide flow cytometry; type: cell-based, Pseudomonas aeruginosa; details: 30 min, PI staining
Method: Overnight P. aeruginosa culture was diluted 1:100 with fresh M9 medium and grown to early-mid exponential phase (OD600 = 0.4–0.6). […] Then the bacteria were incubated with propidium iodide (PI), a dye that is excluded from cells with impermeable membrane. The CytoFLEX flow cytometry (Beckman Coulter) was used to measure the bacterial fluorescent intensities and the data was analyzed using CytExpert 2.4 software. For the time-course detection of the bacterial permeability induced by Au1 or auranofin, P. aeruginosa in early-mid exponential phase (OD600 = 0.2) was incubated with PI dye on a 96-well plate. Au1 or auranofin was added to a final concentration of 50 μM. The fluorescence signal (561 nm excitation, 590 nm emission) and OD600 value were recorded on Cytation5 microplate reader. Each experiment was performed in triplicates.

P. aeruginosa PAO1 = assay: Mouse skin wound infection model; type: in vivo
Method: Six-week-old female BALB/c mice were used for animal experiments to evaluate the healing effect of infected wounds in vivo. Briefly, mouse backs were cut to generate a circular wound (diameter 0.6 cm) with a hole punch and the wound was infiltrated using a medical cotton swab with P. aureginosa (overnight culture, OD600 = 0.3). The mice were randomly divided into three groups, including PBS, auranofin, and Au-1 groups (n = 5 in each group). The drugs were dissolved in DMSO and diluted with glycerol to a final concentration of 50 μM. After the bacterial fluid was dry, about 20 μL of the drug was added to the wound. Body weights and wound photography was recorded on days 0, 1, 3, 5, and 8. And on the 8th day, the mice were euthanized by chloral hydrate, the infectious tissues in all groups were collected and cultured into the LB plate for colony counting. The skin tissues were also fixed by paraformaldehyde solution (4%) for H&E, Gram, and Masson’s trichrome staining.
The above results promoted us to further investigate whether the Au1 compound was also efficacious in an in vivo animal infection model. To this end, we used a mouse wound infection model to assess the anti-P. aeruginosa efficacy of Au1 as described previously ([Liao et al., 2017b]). In brief, a circular wound with a diameter of 6 mm was created on the flank of mice, and approximately 5 × 10^8 CFU of P. aeruginosa PAO1 were dipped onto the wound by medical cotton swab to induce infection. Treatment is administered on the 1st day with auranofin or Au1 compound (50 μM, 20 μL) was applied to the wounds. The wound sizes and mice weights were recorded each day. On the 8th day, the infection sites were excised and part of the tissues was fixed in 4% paraformaldehyde and embedded in paraffin. Four-micrometer sections were cut, stained with Gram, H&E, and Masson’s trichrome stain. The remained tissues were homogenized and serially diluted for CFU quantification (Figure 6A).

[7] = Pseudomonas aeruginosa PAO1, Table S1, read-out: MIC

Row | Compound | MIC [1] [µM] | MIC (Escherichia coli MG16552) [µM] | MIC [2, 7] [µM] | MIC [3] [µM] | increase of MIC values (P. aeruginosa [4]) [times] | MIC ([2]; P. aeruginosa PAO1, lowest concentration inhibiting 95% of growth, 22–24 h, Table 1, listed as auranofin) | MIC ([2]; P. aeruginosa PAO1, lowest concentration inhibiting 95% of growth, 22–24 h, Table 1, read-out: MIC) [µM] | IC50 (lung carcinoma A549 cell) [nM] | impact on the bacterial growth (P. aeruginosa [5]) | synthesis of rhamnolipid (rhamnolipid) | bacterial fluorescence signal compared with the control group (P. aeruginosa [6]; 50 μM) | toxicity to the mice (mice weights) (P. aeruginosa PAO1; 50 μM, 20 μL on wound, 8 days) | bacteria in wound tissue (Gram staining) (P. aeruginosa PAO1; 8th day) | bacteria remained live in the infection sites (P. aeruginosa PAO1; 8th day, CFU) | bacterial fluorescence signal compared with the control group (P. aeruginosa [6]; 5 μM)
1 | NC[C@H]1O[C@H](O[C@H]2[C@H](O)[C@@H](O[C@H]3O[C@H](CO)[C@@H](O)[C@H](N)[C@H]3O)[C@H](N)C[C@@H]2N)[C@H](N)C[C@@H]1O [Tobramycin, tobramycin] | > 100 | 50 (≈ 23.4 µg/mL) | 12.5 (≈ 5.84 µg/mL) | 25 (≈ 11.7 µg/mL) | 30 | – | – | – | – | – | – | – | – | – | –
2 | O=C(O)c1cn(C2CC2)c2cc(N3CCNCC3)c(F)cc2c1=O [Ciprofloxacin, ciprofloxacin] | 25 (≈ 8.28 µg/mL) | < 1.56 | < 1.56 | < 1.56 | 30 | – | – | – | – | – | – | – | – | – | –
3 | CC1(C)S[C@@H]2[C@H](NC(=O)C(C(=O)O)c3ccccc3)C(=O)N2[C@H]1C(=O)O (some centres unmarked) [Carbenicillin] | > 100 | 25 (≈ 9.46 µg/mL) | > 100 | 6.25 (≈ 2.37 µg/mL) | – | – | – | – | – | – | – | – | – | – | –
4 | CC(=O)OC[C@H]1O[C@@H]([S-])[C@H](OC(C)=O)[C@@H](OC(C)=O)[C@@H]1OC(C)=O.CCP(CC)CC.[Au+] [Au9, auranofin] | >100 | >100 | >100 | <1.56 | – | higher than 400 μM | >400 | 2800 ± 400 | little impact | significantly suppress | did not significantly affect | no significant toxicity | large number of bacteria | approximately 70% | –
5 | polymyxin B | >100 | <1.56 | <1.56 | >100 | – | – | – | – | – | – | – | – | – | – | remarkably increased

— publication PMC9096233, “Identification of an Au(I) N-Heterocyclic Carbene Compound as a Bactericidal Agent Against Pseudomonas aeruginosa” (Frontiers in Chemistry, 2022)
